Data from PubChem BioAssay (NCI).
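Test compounds were applied to cells in 96-well plates for 48 hours at 5 doses. TGI denotes the concentration required for complete inhibition of growth.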

Legend:
Assay in all cases: NCI anticancer screen, dose series, 48 h
SK-MEL-2 melanoma = tested on: SK-MEL-2 melanoma
U251 CNS = tested on: U251 CNS
OVCAR-5 ovarian = tested on: OVCAR-5 ovarian
KM12 colon = tested on: KM12 colon
UACC-257 melanoma = tested on: UACC-257 melanoma
HT29 colon = tested on: HT29 colon
HCT-116 colon = tested on: HCT-116 colon
HOP-62 NSCLC = tested on: HOP-62 NSCLC
RPMI-8226 leukemia = tested on: RPMI-8226 leukemia
HOP-92 NSCLC = tested on: HOP-92 NSCLC
NCI/ADR-RES ovarian = tested on: NCI/ADR-RES ovarian
NCI-H226 lung = tested on: NCI-H226 lung
CAKI-1 renal = tested on: CAKI-1 renal
SN12C renal = tested on: SN12C renal
SNB-19 CNS = tested on: SNB-19 CNS
SF-295 CNS = tested on: SF-295 CNS
SK-MEL-28 melanoma = tested on: SK-MEL-28 melanoma
NCI-H23 lung = tested on: NCI-H23 lung
OVCAR-4 ovarian = tested on: OVCAR-4 ovarian
MCF7 breast = tested on: MCF7 breast

SMILES | TGI (SK-MEL-2 melanoma) | TGI (U251 CNS) | TGI (OVCAR-5 ovarian) | TGI (KM12 colon) | TGI (UACC-257 melanoma) | TGI (HT29 colon) | TGI (HCT-116 colon) | TGI (HOP-62 NSCLC) | TGI (RPMI-8226 leukemia) | TGI (HOP-92 NSCLC) | TGI (NCI/ADR-RES ovarian) | TGI (NCI-H226 lung) | TGI (CAKI-1 renal) | TGI (SN12C renal) | TGI (SNB-19 CNS) | TGI (SF-295 CNS) | TGI (SK-MEL-28 melanoma) | TGI (NCI-H23 lung) | TGI (OVCAR-4 ovarian) | TGI (MCF7 breast)
O=C(Nc1ccccc1)c1cc2ccccc2c(N=Nc2ccc([N+](=O)[O-])cc2)c1O | > 100 µM | > 100 µM | > 100 µM | > 100 µM | > 100 µM | > 100 µM | > 100 µM | > 100 µM | > 100 µM | > 100 µM | > 100 µM | > 100 µM | > 100 µM | > 100 µM | > 100 µM | > 100 µM | > 100 µM | > 100 µM | > 100 µM | –
O=P1(Oc2ccc(Cl)cc2Cl)Oc2ccc3ccccc3c2-c2c(ccc3ccccc23)O1 | 36 µM | 47.5 µM | > 100 µM | > 90.4 µM | > 100 µM | > 100 µM | > 75.1 µM | 40 µM | 48 µM | 50.1 µM | > 100 µM | 59.8 µM | 43.3 µM | > 100 µM | 82.8 µM | > 94.7 µM | > 85.4 µM | 75.8 µM | 94.2 µM | > 100 µM
C1CSCCSCCSCCSC1 | > 100 µM | > 100 µM | > 100 µM | > 100 µM | > 100 µM | > 100 µM | > 100 µM | > 100 µM | > 100 µM | > 100 µM | > 100 µM | > 100 µM | > 100 µM | > 100 µM | > 100 µM | > 100 µM | > 100 µM | > 100 µM | > 100 µM | > 100 µM
COc1ccc2nccc(SCC(=O)O)c2c1 | > 100 µM | > 100 µM | > 100 µM | > 100 µM | > 100 µM | > 100 µM | > 100 µM | > 100 µM | > 100 µM | > 100 µM | > 100 µM | > 100 µM | > 100 µM | > 100 µM | > 100 µM | > 100 µM | > 100 µM | > 100 µM | > 100 µM | –
COc1ccc(C2SCC(=O)N2NC(=O)c2ccncc2)cc1F (centres undefined) | > 100 µM | > 100 µM | > 100 µM | > 100 µM | > 100 µM | > 100 µM | > 100 µM | > 100 µM | > 100 µM | > 100 µM | – | > 100 µM | > 100 µM | > 100 µM | > 100 µM | > 100 µM | > 100 µM | > 100 µM | > 100 µM | –
COc1ccc2cc3[nH]c(=O)cc(O)c3cc2c1OC | > 100 µM | > 100 µM | > 100 µM | > 100 µM | > 100 µM | > 100 µM | > 100 µM | > 100 µM | > 100 µM | > 100 µM | – | > 100 µM | > 100 µM | > 100 µM | > 100 µM | > 100 µM | > 100 µM | > 100 µM | > 100 µM | –
